Measured values: ChEMBL document CHEMBL1201862, “PubChem BioAssay data set” (2004)
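Test compounds were applied to cells in 96-well plates for 48 hours at 5 doses. The concentration for 50% growth inhibition is given as GI50.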 Calls of active or inactive are those of the source. No stated cut-off is given here; in the data, active = GI50 up to about 1.1 µM and inactive = higher.

Assays:
Assay in all cases: growth of human tumour cells (NCI), 48 h
[1] = test system: M19-MEL
[2] = test system: DLD-1
[3] = test system: LXFL 529
[4] = test system: HOP-18
[5] = test system: RXF 631
[6] = test system: KM-20L2
[7] = test system: SNB-78
[8] = test system: DMS-114
[9] = test system: XF498

Measured: GI50

C=CCN(N=O)C(=O)ON1C(=O)CCC1=O
inactive: [1] > 100 µM | [2] > 100 µM | [3] > 100 µM | [4] > 100 µM | [5] > 100 µM | [6] > 100 µM | [7] > 100 µM | [8] > 100 µM

CN(C)c1ccc(/C=c2\sc3nc4ccccc4n3c2=O)cc1
inactive: [1] > 100 µM | [2] > 100 µM | [3] > 100 µM | [4] > 100 µM | [5] > 100 µM | [6] > 100 µM | [9] > 100 µM | [7] > 100 µM | [8] > 100 µM

O=C1c2ccccc2C2(O)Nc3c(ccc4ccccc34)C12O (stereo not drawn)
inactive: [1] > 100 µM | [2] > 100 µM | [3] 67.8 µM | [4] > 100 µM | [6] > 100 µM | [7] > 100 µM | [8] 60 µM

c1ccc(/N=C2\c3ccccc3C3=NCCCN32)cc1
inactive: [1] 53.6 µM | [2] 39.2 µM | [3] 43.3 µM | [5] 85.5 µM | [6] 59.2 µM | [9] 85.5 µM | [7] > 100 µM | [8] 28.2 µM

CCC(C)c1cccc(C)c1NC(=O)C(=O)Cc1nc2ccccc2s1 (stereo not drawn)
inactive: [1] > 100 µM | [2] > 100 µM | [3] > 100 µM | [4] > 100 µM | [6] > 100 µM | [9] > 100 µM | [7] > 100 µM | [8] > 100 µM

Cc1cc(C)nc(NS(=O)(=O)c2ccc(Nc3c4ccc(Cl)cc4nc4c(C(=O)Nc5ccc(S(N)(=O)=O)cc5)cccc34)cc2)n1
inactive: [1] 25.4 µM | [2] 13.8 µM | [3] 23.8 µM | [5] 18.2 µM | [6] 18.6 µM | [9] 18.4 µM | [7] 49.9 µM | [8] 22.8 µM

CCCCCCCCCCCCCCCCOC(=O)C(C(=O)OCCCCCCCCCCCCCCCC)[N+](C)(C)CCOC(C)=O
inactive: [1] 13.9 µM | [2] 14.2 µM | [3] 16.1 µM | [4] 16.7 µM | [5] 12.5 µM | [6] 18.6 µM | [7] 19.9 µM | [8] 17.9 µM

O=C(NCCOCCO)c1ccc(O)cc1
inactive: [1] > 100 µM | [2] > 100 µM | [3] > 100 µM | [4] > 100 µM | [6] > 100 µM | [9] 55 µM | [8] > 100 µM

COCCCCCC(=O)CP(=O)(OC)OC
inactive: [1] > 100 µM | [2] > 100 µM | [3] > 100 µM | [4] > 100 µM | [6] > 100 µM | [9] > 79.6 µM | [7] > 100 µM | [8] > 100 µM

Nc1ccccc1N
inactive: [1] > 100 µM | [2] > 100 µM | [3] > 100 µM | [4] > 100 µM

CCn1cc(/C=C/C(C)c2cn(CC)c(=O)[nH]c2=O)c(=O)[nH]c1=O (stereo not drawn)
inactive: [1] > 100 µM | [2] > 100 µM | [3] > 100 µM | [4] > 100 µM | [5] > 100 µM | [6] > 100 µM | [8] > 100 µM

CCN(CC)CC(C(C)=O)C(c1ccccc1)c1c(O)c2ccccc2oc1=O (stereo not drawn)
inactive: [1] > 100 µM | [2] > 100 µM | [3] > 100 µM | [4] > 100 µM | [6] > 100 µM | [9] > 100 µM | [7] > 100 µM | [8] > 100 µM

CCSC1(SCC)CC(Cc2ccc(OC)cc2)N(/C=N/C(C)(C)C)C1 (stereo not drawn)
inactive: [1] 29 µM | [2] 33.5 µM | [3] 25.3 µM | [4] 41.1 µM | [6] 12.9 µM | [9] 18.1 µM | [7] 31.8 µM | [8] 20.1 µM

COc1ccc(C2CCc3cc4c(cc3/C2=N/OC(C)=O)OCO4)cc1OC (stereo not drawn)
inactive: [1] 22.1 µM | [3] 26.4 µM | [4] 26.7 µM | [5] 25.5 µM | [6] 22.3 µM | [9] 18.4 µM | [7] 41.4 µM | [8] 10.7 µM

O=C1OC(/C=C/c2ccccc2)C(=O)C1=O (stereo not drawn)
inactive: [1] > 100 µM | [2] > 100 µM | [3] > 100 µM | [4] 23.8 µM | [6] > 100 µM | [9] > 100 µM

Cn1nc(-c2ccccc2)c2c(/C=C/c3ccc(F)cc3)onc2c1=O
inactive: [1] > 100 µM | [2] > 100 µM | [3] > 100 µM | [4] 11.3 µM | [6] > 100 µM | [9] 14.8 µM

COc1ccc(NC(=O)CC/C(CC(=O)c2ccco2)=N/Nc2ccc([N+](=O)[O-])cc2[N+](=O)[O-])cc1
inactive: [1] 58.1 µM | [3] 43.2 µM | [4] 26.2 µM | [5] 38.8 µM | [6] > 100 µM | [9] 22.8 µM | [7] > 100 µM | [8] 23.6 µM

COC(=O)[C@@H]1C(=O)O[C@@H](c2ccc3c(c2)OCO3)[C@@H]1C(=O)OC.COC(=O)[C@H]1C(=O)O[C@@H](c2ccc3c(c2)OCO3)[C@@H]1C(=O)OC
inactive: [1] > 100 µM | [2] > 100 µM | [3] > 100 µM | [5] > 100 µM | [6] > 100 µM | [7] > 100 µM | [8] > 100 µM

NC(=O)Nc1c([N+](=O)[O-])cc(C(F)(F)F)cc1[N+](=O)[O-]
inactive: [3] > 100 µM | [5] 65.9 µM | [6] 29.2 µM | [9] 53.6 µM | [7] > 100 µM

CC(C)=CCC/C(C)=C/CC/C(C)=C/CC/C=C(\C)CC/C=C(\C)CCC1SC1(C)C (stereo not drawn)
inactive: [1] > 100 µM | [2] > 100 µM | [3] > 100 µM | [4] > 100 µM | [6] > 100 µM | [7] > 100 µM | [8] 75.7 µM

Cc1cc(Cl)cc2c1NC(=O)C2=O.O=C(c1ccccc1)C(F)(F)F
inactive: [1] 13.3 µM | [2] 60.1 µM | [3] 56.1 µM | [4] 59.7 µM | [6] 76 µM | [9] 30.1 µM | [7] 24.4 µM | [8] 30.7 µM
